The text below walks through data of patent publication US20230398130A1, “METHODS AND COMPOSITIONS FOR DIFFERENTIATING STEM CELLS” (Massachusetts Institute of Technology, priority 2020, published 2023).

The subject of assay [1] is ISC-enriched organoids. Kind of assay: Primary screen, 384-well 2.5-D organoid differentiation (ENR+CD, 6 days, Target Selective Inhibitor Library, vs whole-plate median): ATP (CellTiter-Glo 3D, CTG). Conditions: for Dose.FC.CTG / Z.CTG: primary screen; for Dose.FC.CTG: FC vs plate median; for Dose.FC.CTG (log 2 fold change, ATP): vs plate median.
Assay [2] has as its system ISC-enriched organoids. Kind of assay: Primary screen, 384-well 2.5-D organoid differentiation (ENR+CD, 6 days): carbachol-induced lysozyme secretion (LYZ.S). It counts as cell-based, murine. The settings on record: for Dose.FC.LYZ.S: primary screen, FC vs plate median; for Dose.FC.LYZ.S (log 2 fold change, carbachol-induced lysozyme secretion): vs plate median. An excerpt: (§1) High-throughput screening.

Assay [3] has as its system ISC-enriched organoids. In words: Primary screen, 384-well 2.5-D organoid differentiation (ENR+CD, 6 days): basal lysozyme secretion (LYZ.NS). Conditions: for Dose.FC.LYZ.NS / Z.LYZ.NS: primary screen; for Dose.FC.LYZ.NS: FC vs plate median; for Dose.FC.LYZ.NS (log 2 fold change, basal lysozyme secretion): vs plate median. Format: cell-based, murine.
Text: as §1

Setting [4] is: dose 0.08 uM (1st of 4 lines per treatment; dose not printed in this part).
Where [5] appears, read: dose 0.40 uM (2nd of 4 lines per treatment; dose not printed in this part).
The mark [6] stands for this setting: dose 2.00 uM (3rd of 4 lines per treatment; dose not printed in this part).
Setting [7] is: dose 10.00 uM (4th of 4 lines per treatment; dose not printed in this part).
Setting [8] is: dose 0.08 uM, standard z score of FC.
[9] abbreviates: dose 0.40 uM, standard z score of FC.
Setting [10] is: dose 2.00 uM, standard z score of FC.
The mark [11] stands for this setting: dose 10.00 uM, standard z score of FC.
Setting [12] is: Dose 10.00 uM, standard z score.

Each structure is given as a SMILES string.

Take `O=C(O)C(Cc1ccccc1[N+](=O)[O-])=NNc1nc(-c2ccc(Cl)c(Cl)c2)cs1` (mixture of isomers) [4EGI-1]: the “SSMD.CTG_Rep (strictly standardized mean difference)” value is listed as −0.352 in assay [1] (setting [4]), −0.158 in assay [1] (setting [5]), 0.407 in assay [1] (setting [6]) and −0.283 in assay [1] (setting [7]). In addition, the Dose.FC.CTG is reported as −0.160 log 2 fold change in assay [1] (dose 0.08 uM, ENR+CD 6 days); −0.131 log 2 fold change in assay [1] (dose 0.40 uM, ENR+CD 6 days); 0.127 log 2 fold change in assay [1] (dose 2.00 uM, ENR+CD 6 days); −0.109 log 2 fold change in assay [1] (dose 10.00 uM, ENR+CD 6 days). The Z.CTG in assay [1] (setting [8]) was −0.383; in assay [1] (setting [9]), −0.314; in assay [1] (setting [10]), 0.304; in assay [1] (setting [11]), −0.261. Besides, the “SSMD.LYZ.S_Rep (strictly standardized mean difference)” value is −0.264 in assay [2] (setting [4]), 0.326 in assay [2] (setting [5]), −0.328 in assay [2] (setting [6]) and 0.189 in assay [2] (setting [7]). The “Z.LYZ.S (standard z score)” value in assay [2] (setting [4]) is listed as −0.236; in assay [2] (setting [5]) it was 0.352; in assay [2] (setting [6]) it was −0.380; in assay [2] (setting [7]), 0.366. The Dose.FC.LYZ.S in assay [2] (dose 0.08 uM, ENR+CD 6 days) is reported as −0.037 log 2 fold change; in assay [2] (dose 0.40 uM, ENR+CD 6 days), 0.054 log 2 fold change; in assay [2] (dose 2.00 uM, ENR+CD 6 days) it was −0.059 log 2 fold change; in assay [2] (dose 10.00 uM, ENR+CD 6 days) it was 0.057 log 2 fold change. In addition, the “SSMD.LYZ.NS_Rep (strictly standardized mean difference)” value is 0.378 in assay [3] (setting [4]), 0.264 in assay [3] (setting [5]), 0.252 in assay [3] (setting [6]) and −0.257 in assay [3] (setting [7]). Moreover, the Dose.FC.LYZ.NS in assay [3] (dose 0.08 uM, ENR+CD 6 days) is 0.110 log 2 fold change; in assay [3] (dose 0.40 uM, ENR+CD 6 days) it was 0.036 log 2 fold change; in assay [3] (dose 2.00 uM, ENR+CD 6 days), 0.069 log 2 fold change; in assay [3] (dose 10.00 uM, ENR+CD 6 days), −0.034 log 2 fold change. The Z.LYZ.NS is recorded as 0.956 in assay [3] (setting [8]), 0.315 in assay [3] (setting [9]), 0.597 in assay [3] (setting [10]) and −0.300 in assay [3] (setting [11]).
For `Fc1cc(F)c2c(c1)[C@H]1C=CC[C@H]1C(c1cccnc1)N2` (mixture of isomers) [Golgicide A], the Dose.FC.CTG was 0.167 log 2 fold change in assay [1] (Dose 0.08 uM), 0.227 log 2 fold change in assay [1] (Dose 0.40 uM), 0.339 log 2 fold change in assay [1] (Dose 2.00 uM) and −0.220 log 2 fold change in assay [1] (Dose 10.00 uM). Further, the Z.CTG in assay [1] (Dose 0.08 uM, standard z score) is listed as 0.398; in assay [1] (Dose 0.40 uM, standard z score), 0.541; in assay [1] (Dose 2.00 uM, standard z score), 0.810; in assay [1] (setting [12]), −0.526. For the same molecule, the Dose.FC.LYZ.S in assay [2] (Dose 0.08 uM) was 0.146 log 2 fold change; in assay [2] (Dose 0.40 uM), 0.202 log 2 fold change; in assay [2] (Dose 2.00 uM), 0.076 log 2 fold change; in assay [2] (Dose 10.00 uM) it was −0.256 log 2 fold change. In addition, the Dose.FC.LYZ.NS is listed as 0.267 log 2 fold change in assay [3] (Dose 0.08 uM), 0.066 log 2 fold change in assay [3] (Dose 0.40 uM), 0.171 log 2 fold change in assay [3] (Dose 2.00 uM) and −0.161 log 2 fold change in assay [3] (Dose 10.00 uM). The Z.LYZ.NS is 2.325 in assay [3] (Dose 0.08 uM, standard z score); 0.576 in assay [3] (Dose 0.40 uM, standard z score); 1.492 in assay [3] (Dose 2.00 uM, standard z score); −1.402 in assay [3] (setting [12]).
As for `C[C@H]1COC2(CCN(c3nc(=O)c4cc(C(F)(F)F)cc([N+](=O)[O-])c4s3)CC2)O1` (racemic) [BTZ043 Racemate], the Dose.FC.CTG is reported as 0.497 log 2 fold change in assay [1] (dose 0.08 uM, ENR+CD 6 days); 0.545 log 2 fold change in assay [1] (dose 0.40 uM, ENR+CD 6 days); 0.063 log 2 fold change in assay [1] (dose 2.00 uM, ENR+CD 6 days); 0.327 log 2 fold change in assay [1] (dose 10.00 uM, ENR+CD 6 days). In addition, the Z.CTG in assay [1] (setting [8]) is given as 1.187; in assay [1] (setting [9]) it was 1.303; in assay [1] (setting [10]) it was 0.150; in assay [1] (setting [11]), 0.782. The Dose.FC.LYZ.S in assay [2] (dose 0.08 uM, ENR+CD 6 days) worked out at 0.199 log 2 fold change; in assay [2] (dose 0.40 uM, ENR+CD 6 days), 0.252 log 2 fold change; in assay [2] (dose 2.00 uM, ENR+CD 6 days), 0.038 log 2 fold change; in assay [2] (dose 10.00 uM, ENR+CD 6 days), 0.070 log 2 fold change. Moreover, the Dose.FC.LYZ.NS in assay [3] (dose 0.08 uM, ENR+CD 6 days) is listed as 0.131 log 2 fold change; in assay [3] (dose 0.40 uM, ENR+CD 6 days), 0.186 log 2 fold change; in assay [3] (dose 2.00 uM, ENR+CD 6 days), 0.089 log 2 fold change; in assay [3] (dose 10.00 uM, ENR+CD 6 days) it was 0.100 log 2 fold change. Moreover, the Z.LYZ.NS in assay [3] (setting [8]) was 1.138; in assay [3] (setting [9]), 1.619; in assay [3] (setting [10]), 0.776; in assay [3] (setting [11]) it was 0.870.
Take `Cl.N[C@@H]1C[C@H]1c1ccccc1` (racemic) [Tranylcypromine (2-PCPA) HCl]: the “Z.CTG (standard z score)” value in assay [1] (dose 0.08 uM) is recorded as −0.153; in assay [1] (dose 0.40 uM), 0.148; in assay [1] (dose 2.00 uM), 0.128; in assay [1] (dose 10.00 uM), −1.274. Further, the “Dose.FC.CTG (log 2 fold change, ATP)” value in assay [1] (dose 0.08 uM) was −0.064; in assay [1] (dose 0.40 uM), 0.062; in assay [1] (dose 2.00 uM) it was 0.053; in assay [1] (dose 10.00 uM) it was −0.533. Also, the “Dose.FC.LYZ.S (log 2 fold change, carbachol-induced lysozyme secretion)” value is 0.050 in assay [2] (dose 0.08 uM), −0.037 in assay [2] (dose 0.40 uM), 0.036 in assay [2] (dose 2.00 uM) and −0.096 in assay [2] (dose 10.00 uM). The “Z.LYZ.NS (standard z score)” value in assay [3] (dose 0.08 uM) is recorded as 0.285; in assay [3] (dose 0.40 uM) it was −0.426; in assay [3] (dose 2.00 uM), 0.423; in assay [3] (dose 10.00 uM), −0.389. Moreover, the “Dose.FC.LYZ.NS (log 2 fold change, basal lysozyme secretion)” value is given as 0.033 in assay [3] (dose 0.08 uM), −0.049 in assay [3] (dose 0.40 uM), 0.049 in assay [3] (dose 2.00 uM) and −0.045 in assay [3] (dose 10.00 uM).
